Results published in patent publication US7906334B2, “Method for reproducing conifers by somatic embryogenesis using lactose as a carbon source” (Cellfor Inc., priority 2003, dated 2011).

Tests used:
[1] = tested on: radiata pine lines RP1, RP2, RP3, and RP4; assay: Effect of carbon source on somatic embryo development of radiata pine in liquid cultures; type: cell-based, Pinus radiata (radiata pine); details: for # SE/g FW ± sd / Grams FW at the end of proliferation stage (from 1.5 g): 1.0% sucrose or 3.0% galactose in TXR prematuration media I and II; for tissue morphology: tissue induced and maintained on MSG sucrose or TXR galactose
From the text: Tissue induced on MSG containing sucrose was further maintained on MSG sucrose medium, and tissue induced on TXR galactose was maintained on TXR medium containing galactose as described in Example 6. The tissue morphology of the lines induced on galactose was different from that induced on sucrose. […] The lines used in this study were RP1, RP2, RP3, and RP4.
Suspension cultures were initiated as described in Example 6. These cultures were maintained in liquid media for 20-28 days by transfers to fresh maintenance medium every 10 to 14 days. Up to five fold increase of the tissue was estimated at the end of each 10 to 14 day transfer.
In order to study the effect of galactose on embryo development after the proliferation stage, 2 g tissue was further transferred to 250 ml flasks, containing 50 ml of TXR prematuration medium I supplemented with either 1.0% sucrose or 3.0% galactose. As with loblolly pine cultures, prematuration I requires reduction of hormones either by reducing the auxin and cytokinin concentrations to optimally about 1/20 of the concentration of proliferation step, or by adding charcoal at about 0.01 to 1%, or a combination of both.
After the 10-14 day period, 1.5 g tissue was transferred to 250 ml flasks containing 50 ml TXR prematuration medium II to which either 1.0% sucrose or 3.0% galactose and 90 μM ABA were added.
Early stage somatic embryos were collected after 10 to 14 days and matured on modified ½ LV maturation medium as described in Example 6.

[2] = tested on: Douglas fir embryogenic tissue, cell line DF-2; assay: Effects of carbohydrates on liquid maintenance of Douglas fir embryogenic tissue; type: cell-based, Pseudotsuga menziesii (Douglas fir); details: 3 weeks suspension maintenance/bulking-up, 0.5% galactose, 1% lactose, 0.5% mannitol
Experimental: The culture medium for Douglas fir was TX medium (see Table A) with the following additives: glutamine 100 mg., Casein hydrolysate 100 mg., and pH 5.8. The following compounds were added into the basal medium for Douglas fir somatic embryo development at different stages: • 1) Induction medium: 18 μM 2,4-D and 9 μM BA, phytagel 0.28%, sucrose 1% • 2) Solid maintenance medium: 9 μM 2,4-D and 4.5 μM BA, phytagel 0.28%, sucrose 1%. • 3) Liquid maintenance and bulking-up medium: 9 μM 2,4-D and 4.5 μM BA, different carbon sources for experiments. • 4) Liquid pre-treatment medium: 20 (first week) or 30 μM ABA (second week), 10% PEG4000 (first week) or PEG1500 (second week), different carbon sources as described in examples below. • 5) Solid maturation media: TX (Table A) plus 0.02% NH4NO3 • Medium I. 40 μM ABA, 10% PEG 1500, maltose 2.5%, phytagel 0.6% • Medium II. 60 μM ABA, 10% PEG1500, maltose 2.5% and sucrose 1%, phytagel 0.8% • Medium III. 70 μM ABA, 6% PEG1500, sucrose 6%, phytagel 1%.
Embryogenic tissue was induced from immature zygotic embryos. The cones and seeds were surface-sterilised as described for pines, and embryos were dissected out from megagametophytes. The embryos, with the attachment of suspensors to their megagametophytes, were placed on the surface of induction medium. The culture was kept in darkness at 23° C. Embryogenic tissue was sub-cultured once every two weeks onto solid maintenance medium.
Embryogenic tissue of Douglas fir was collected from solid maintenance culture and one gram of tissue was transferred into a 200 ml flask containing 50 ml TX (see Table A) liquid maintenance medium. The liquid maintenance medium was supplied with different sugars (Table 8).
The tissue was drained, weighed and sub-cultured once per week. During a culture period of three weeks, the highest tissue growth was found in the culture with glucose as the major carbon source. The media containing sucrose, maltose and galactose also supported a fast tissue growth. With these latter sugars, tissue increased to 68 to 100 fold in three weeks. Tissue grew little in the media containing lactose or mannitol. […] Similar results were obtained within two cell lines, DF-7A and DF-2.

[3] = tested on: loblolly pine lines LP1 and LP3; assay: Effect of galactose and galactose-containing sugars during proliferation and prematuration on SE yield; type: cell-based, Pinus taeda (loblolly pine); set-up: Amount of tissue at the end of the preculture II stage: unit not given here; details: for # SE/g FW / Amount of tissue at the end of the preculture II stage: 1% sucrose, 1.5% maltose, 1.5% lactose or 0.75% galactose
Experimental: The finding that loblolly pine cultures were capable of utilising galactose is unique. In order to further investigate these phenomenon two lines, LP1 and LP3, were cultured on semi-solid TX medium containing 1.0% lactose and 0.5% sucrose. Cultures were maintained by subculturing the embryogenic tissue every 10 to 14 days to fresh media. All cultures were incubated at 23° C. in the dark. Suspension cultures were initiated as described in Example 3, however, TX medium was supplemented with either 1% sucrose, 1.5% maltose, 1.5% lactose, or 0.75% galactose. These cultures were maintained in liquid media for 4 weeks by weekly transfers to fresh maintenance or prematuration media. After the 4˜week period, 1 ml of the liquid medium containing 0.1 g of tissue consisting of early stage somatic embryos was plated on each […] plates containing ½ LV maturation medium. This medium contained 120 μM ABA and 6.0% sucrose and 1% Phytagel. Eight to ten weeks later, mature somatic embryos were counted and treatments were evaluated based on the number of somatic embryos per gram fresh weight (Table 5).

[4] = tested on: radiata pine megagametophytes containing immature zygotic embryos; assay: Effect of carbon source on induction of radiata pine; type: cell-based, Pinus radiata (radiata pine)
Experimental: Female gametophytes containing immature zygotic embryos were used as explants. The cones were surface sterilised in 10% bleach solution for 15 min. They were rinsed 3 times with sterile water, air dried and stored in polyethylene bags at 4° C. until used. Seeds were sterilised in 3% hydrogen peroxide containing 0.1% Tween 20 and rinsed in sterile deionized water. Megagametophytes containing the immature embryos were plated on MSG (standard radiata pine medium containing sucrose, Table B) and on TX medium (Table A) supplemented with 2.2 mg/l 2,4-D, 1 mg/l BA and 0.3% Phytagel and containing 1.5% galactose and 0.5% sucrose. Casein hydrolysate was reduced to 1000 mg/l (TXR medium).
Cultures were maintained on the two media by subculturing the embryogenic tissue every 10 to 14 days to fresh media. All cultures were incubated at 23° C. in the dark. Suspension cultures were initiated as 2 g of tissue were introduced to 50 ml of TXR liquid medium containing 1.0% sucrose. […]
One ml of TXR medium containing 0.1 g tissue consisting of early stage somatic embryos was plated on modified ½ LV maturation medium (Table C) in which glutamine was reduced to 500 mg/l and casein hydrolysate to 1000 mg/l. […] Twelve to fourteen weeks later, mature somatic embryos were counted and treatments were evaluated based on the number of somatic embryos per gram fresh weight.

[5] = tested on: Douglas fir embryogenic tissue; assay: Medium osmolarity before and after one-week tissue inoculation; type: cell-based, Pseudotsuga menziesii (Douglas fir); details: medium with 0.5% galactose, 1% lactose, 0.5% mannitol or 0.5% glucose
From the text: More change of medium osmolarity occurred during week 2 than week 1. The medium osmolarity changed little when lactose or mannitol was used in the media.

[6] = tested on: Suspension cultures of loblolly lines LP1, LP2, LP3, LP4 and LP5; assay: Effect of carbon source on liquid maintenance: growth rate and yield of somatic embryos; type: cell-based, Pinus taeda (loblolly pine); details: 1% sucrose; for # SE/g FW ± sd: 1.5% maltose or 1.5% lactose for 4 weeks in liquid, then 8-10 weeks on 1/2 LV maturation medium; for Average amount of tissue produced after 4 weeks in liquid (FW g): 1.5% maltose or 1.5% lactose in maintenance and prematuration I and II, started with 2 g
Experimental: Suspension cultures of loblolly lines LP1, LP2, LP3, LP4 and LP5 were started with 2 g of tissue introduced to 50 ml of TX liquid medium containing different sugars—1% sucrose, 1.5% maltose, or 1.5% lactose. These cultures were maintained in the same liquid media for 2 weeks by weekly transfers to fresh maintenance medium containing the above sugars. Then, 2 g of tissue produced in each maintenance medium was transferred to prematuration media I, containing the same carbon source as the maintenance media. After one week, 1.5 g of tissue from each prematuration medium I was transferred to prematuration media II containing the same sugars. After the 4 week period in liquid media, early stage somatic embryos were collected and plated on ½ LV maturation medium containing 120 μM ABA and 6.0% sucrose and 1% Phytagel. Eight to ten weeks later, mature somatic embryos were counted and treatments were evaluated based on the number of somatic embryos per gram fresh weight (SE/g FW). Table 2 summarises the tissue yield at the end of the 4-week period and the number of mature somatic embryos produced for each line.

[7] = tested on: loblolly pine embryogenic tissue; assay: Effect of carbon source on solid maintenance of loblolly pine; type: cell-based, Pinus taeda (loblolly pine); details: semi-solid TX medium; 1% sucrose, or 1.5% lactose and 0.025% glucose
Experimental: Tissue induced on sucrose from Example 1 was further maintained on the semi-solid TX medium containing 1% sucrose, and tissue induced on lactose was maintained on semi-solid TX medium containing 1.5% lactose and 0.025% glucose. The tissue morphology of the lines induced on lactose was different from the ones induced on sucrose. […] In order to further increase the proliferation rate, 0.5% sucrose was added to the TX 1.5% lactose-containing medium in place of 0.025% glucose. This medium provided a reasonable bulk-up rate, and growth of embryos was more synchronized than in the 1% sucrose medium.

[8] = additional glucose 0%, 0.5% glucose, 1% sucrose, 1% maltose

SMILES	# SE/g FW ± sd [1]	Grams FW at the end of proliferation stage (from 1.5 g) [1]	Tissue growth increase ([1]; galactose as carbon source)	number of mature somatic embryos at the end of maturation ([1]; galactose as carbon source)	tissue morphology [1]	Tissue growth (fold, mean ± SD) [2, 8]	Tissue growth (fold, mean ± SD) ([2]; additional glucose 0.025%)	# SE/g FW ([3]; line LP1)	Amount of tissue at the end of the preculture II stage ([3]; line LP1)	# SE/g FW ([3]; line LP3)	Amount of tissue at the end of the preculture II stage ([3]; line LP3)	Induction success, galactose compared with sucrose medium ([4]; galactose as carbon source)	subsequent yields of mature embryos, galactose compared with sucrose medium ([4]; tissues induced on galactose)	Osmolarity before inoculation (mmol/kg, mean ± SD) [5]	# SE/g FW ± sd [6]	Average amount of tissue produced after 4 weeks in liquid (FW g) [6]	tissue morphology [7]	embryos produced ([3]; line LP1, as stated in the text)	amount of tissue at the end of the 4 week-liquid period ([3]; line LP3, sucrose as sole carbon source)
O=C[C@H](O)[C@@H](O)[C@@H](O)[C@H](O)CO [Galactose]	405.3 ± 10 SE/g FW	9.5 ± 2 g	more than 5 times	doubled	more early stage immature embryos and a limited amount of suspensor type of surrounding tissue	68.64 ± 4.58 fold	97.02 ± 2.67 fold	216 ± 8 SE/g FW	59.45	172 ± 5 SE/g FW	8.65	greater than three times higher	almost double	71.67 ± 1.15 mmol/kg					
OC[C@H]1O[C@H](O[C@H]2[C@H](O)[C@@H](O)[C@H](O)O[C@@H]2CO)[C@H](O)[C@@H](O)[C@@H]1O [Maltose, maltose]						85.01 ± 1.71 fold		106 ± 4 SE/g FW	232.18	160 ± 5 SE/g FW	118.22				209 ± 28 SE/g FW	204.45 g			
OC[C@H]1O[C@@](CO)(O[C@H]2O[C@H](CO)[C@@H](O)[C@H](O)[C@H]2O)[C@@H](O)[C@@H]1O [Sucrose, sucrose]	213.3 ± 6 SE/g FW	11.05 ± 2 g			predominantly suspensor type tissue and very few embryos	100.94 ± 12.0 fold		11 ± 3 SE/g FW	121.22	100 ± 6 SE/g FW	1278.18				126 ± 20 SE/g FW	592.06 g	Predominantly suspensor type tissue and very few embryos	11 embryos	1278.18 g
OC[C@@H](O)[C@@H](O)[C@H](O)[C@H](O)CO [mannitol, reference compound]						1.60 ± 0.13 fold	3.34 ± 0.22 fold							76 ± 1 mmol/kg					
